# In patent publication US20080009418A1, “Selective Inhibitors” (Alchemia LTD., priority 2004, published 2008):
# Legend:
# [1] = target: T1, Human Melanocortin (MC3) (Homo sapiens, UniProt P41968); test: Radioligand binding, human melanocortin MC3 membranes, FlashPlate, [125I]-NDP-αMSH; conditions: compound at 10 μM, [125I]-NDP-αMSH
# T1 construct: purchased Perkin Elmer Biosignal
# How it was run: (§1)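 Cloned human receptor membranes were coated onto FlashPlate wells and incubated with radioligand and compound (added from a 0.5 mM DMSO daughter plate) for 1 hour at room temperature in the dark. Scintillation counting gave percent inhibition, with DMSO defining total and reference ligand defining non-specific binding.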
# [2] = target: T2, Human neurokinin (NK1) (Homo sapiens, UniProt P25103); test: Radioligand binding, human neurokinin NK1 membranes, filtration, [125I]-Substance P; conditions: compound at 10 μM, [125I]-Substance P
# T2 construct: purchased Perkin Elmer Biosignal
# T2 sequence (P25103 whole entry): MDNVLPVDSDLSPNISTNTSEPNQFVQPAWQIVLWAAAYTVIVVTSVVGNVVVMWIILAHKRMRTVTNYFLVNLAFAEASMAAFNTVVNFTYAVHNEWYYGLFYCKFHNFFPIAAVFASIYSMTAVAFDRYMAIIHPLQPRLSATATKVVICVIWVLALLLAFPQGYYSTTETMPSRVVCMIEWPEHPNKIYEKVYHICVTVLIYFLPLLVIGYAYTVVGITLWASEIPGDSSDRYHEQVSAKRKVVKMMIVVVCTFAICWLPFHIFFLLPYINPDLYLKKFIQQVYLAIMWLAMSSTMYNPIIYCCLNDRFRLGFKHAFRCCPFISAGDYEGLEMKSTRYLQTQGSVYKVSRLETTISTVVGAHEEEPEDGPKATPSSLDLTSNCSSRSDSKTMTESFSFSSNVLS
# How it was run: (§2)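 Percent inhibition of radioligand binding measured on recombinant human membranes: NK1 with [125I]-Substance P, KOP with [3H]-Diprenorphine. Incubation 1 h at room temperature, then harvest onto 0.3% PEI-soaked filters, cold Tris-HCl pH 7.4 washes and scintillation counting; non-specific binding from reference ligand wells.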
# [3] = target: T3, Human melanocortin (MC5) (Homo sapiens, UniProt P33032); test: Radioligand binding, human melanocortin MC5 membranes, FlashPlate, [125I]-NDP-αMSH; conditions: compound at 10 μM, [125I]-NDP-αMSH
# T3 construct: purchased Perkin Elmer Biosignal
# T3 sequence (P33032 whole entry): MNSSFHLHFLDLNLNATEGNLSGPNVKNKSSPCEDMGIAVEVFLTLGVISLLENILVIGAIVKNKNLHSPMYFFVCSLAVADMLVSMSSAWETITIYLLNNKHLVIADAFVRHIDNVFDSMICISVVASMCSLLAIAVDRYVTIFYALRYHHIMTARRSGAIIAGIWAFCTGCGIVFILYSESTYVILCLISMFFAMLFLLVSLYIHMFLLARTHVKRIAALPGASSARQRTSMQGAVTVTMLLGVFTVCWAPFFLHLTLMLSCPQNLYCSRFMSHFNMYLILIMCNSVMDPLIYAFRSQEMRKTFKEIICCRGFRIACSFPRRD
# How it was run: as §1
# [4] = target: T4, Human opioid (ORL1) (Homo sapiens, UniProt P41146); test: Radioligand binding, human opioid ORL1 membranes, FlashPlate, [125I]-Nociceptin; conditions: compound at 10 μM, [125I]-Nociceptin
# T4 construct: purchased Perkin Elmer Biosignal
# T4 sequence (P41146 whole entry): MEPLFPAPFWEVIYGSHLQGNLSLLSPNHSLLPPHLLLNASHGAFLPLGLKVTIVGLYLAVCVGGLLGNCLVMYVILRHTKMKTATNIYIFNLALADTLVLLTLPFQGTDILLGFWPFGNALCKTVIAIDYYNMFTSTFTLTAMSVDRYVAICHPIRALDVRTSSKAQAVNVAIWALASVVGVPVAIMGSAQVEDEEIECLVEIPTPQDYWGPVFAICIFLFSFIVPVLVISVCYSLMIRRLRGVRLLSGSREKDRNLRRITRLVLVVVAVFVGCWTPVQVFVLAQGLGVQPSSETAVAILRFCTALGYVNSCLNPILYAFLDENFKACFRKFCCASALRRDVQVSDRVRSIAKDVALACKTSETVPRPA
# How it was run: as §1
# [5] = target: T5, Human κ-Opioid (KOP) (Homo sapiens, UniProt P41145); test: Radioligand binding, human κ-opioid (KOP) membranes, filtration, [3H]-Diprenorphine; conditions: compound at 10 μM, [3H]-Diprenorphine
# T5 construct: purchased Perkin Elmer Biosignal
# T5 sequence (P41145 whole entry): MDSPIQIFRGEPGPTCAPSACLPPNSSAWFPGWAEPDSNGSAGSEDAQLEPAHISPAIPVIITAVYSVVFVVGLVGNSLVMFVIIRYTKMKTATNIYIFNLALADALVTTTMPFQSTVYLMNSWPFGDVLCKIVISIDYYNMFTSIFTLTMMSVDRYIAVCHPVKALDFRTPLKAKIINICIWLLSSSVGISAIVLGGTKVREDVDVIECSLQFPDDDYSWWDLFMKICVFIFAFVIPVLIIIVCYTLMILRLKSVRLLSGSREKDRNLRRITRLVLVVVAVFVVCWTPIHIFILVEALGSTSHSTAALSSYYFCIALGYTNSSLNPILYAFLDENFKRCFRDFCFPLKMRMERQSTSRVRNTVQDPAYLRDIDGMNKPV
# How it was run: as §2
# [6] = target: T6, Human Melanocortin (MC4) (Homo sapiens, UniProt P32245); test: Radioligand binding, human melanocortin MC4 membranes, FlashPlate, [125I]-NDP-αMSH; conditions: compound at 10 μM, [125I]-NDP-αMSH
# T6 construct: purchased Perkin Elmer Biosignal
# T6 sequence (P32245 whole entry): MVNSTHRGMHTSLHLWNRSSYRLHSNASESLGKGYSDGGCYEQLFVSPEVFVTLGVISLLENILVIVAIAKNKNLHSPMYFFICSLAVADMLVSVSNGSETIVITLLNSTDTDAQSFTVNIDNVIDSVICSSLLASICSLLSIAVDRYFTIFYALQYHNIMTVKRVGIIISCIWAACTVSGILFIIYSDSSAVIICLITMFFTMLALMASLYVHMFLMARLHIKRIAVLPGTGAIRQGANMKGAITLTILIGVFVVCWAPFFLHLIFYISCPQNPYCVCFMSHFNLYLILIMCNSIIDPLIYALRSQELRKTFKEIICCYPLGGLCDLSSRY
# How it was run: as §1
# [7] = target: T7, Mouse urotensin (mUR2) (Mus musculus, UniProt Q8VIH9); test: Radioligand binding, mouse urotensin mUR2 membranes, FlashPlate, [125I]-Urotensin II; conditions: compound at 10 μM, [125I]-Urotensin II
# T7 construct: purchased Perkin Elmer Biosignal
# T7 sequence (Q8VIH9 1-385): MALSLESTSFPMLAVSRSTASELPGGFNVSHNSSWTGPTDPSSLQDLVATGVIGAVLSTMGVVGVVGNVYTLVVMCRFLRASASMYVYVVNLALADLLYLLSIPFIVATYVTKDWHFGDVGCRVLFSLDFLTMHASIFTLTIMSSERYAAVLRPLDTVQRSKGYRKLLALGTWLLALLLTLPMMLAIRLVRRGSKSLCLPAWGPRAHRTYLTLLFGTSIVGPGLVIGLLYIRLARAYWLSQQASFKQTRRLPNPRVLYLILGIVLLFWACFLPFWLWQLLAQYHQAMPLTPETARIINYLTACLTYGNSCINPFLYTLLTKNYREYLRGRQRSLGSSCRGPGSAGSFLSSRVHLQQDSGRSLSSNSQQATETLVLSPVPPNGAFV
# How it was run: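 Cloned mouse urotensin (mUR2) receptor membranes from Perkin Elmer Biosignal were immobilized in FlashPlate microplates using a proprietary coating. Each well got 19.5 μl buffer, then 0.5 μl of DMSO, reference ligand, or compound. Adding 5 μl of [125I]-Urotensin II, diluted to 5× final concentration in binding buffer, started binding. Plates were sealed with TopSeal-A and incubated 1 hour at room temperature in the dark. Wells were counted for 30 seconds each on a TopCount after a 60-second delay, and percentage inhibition was calculated.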
# [8] = target: T8, Human μ-opioid (MOP) (Homo sapiens, UniProt P35372); test: Radioligand binding, human μ-opioid (MOP) membranes, FlashPlate, [3H]-Naloxone; conditions: compound at 10 μM, [3H]-Naloxone
# T8 construct: purchased Perkin Elmer Biosignal
# T8 sequence (P35372 whole entry): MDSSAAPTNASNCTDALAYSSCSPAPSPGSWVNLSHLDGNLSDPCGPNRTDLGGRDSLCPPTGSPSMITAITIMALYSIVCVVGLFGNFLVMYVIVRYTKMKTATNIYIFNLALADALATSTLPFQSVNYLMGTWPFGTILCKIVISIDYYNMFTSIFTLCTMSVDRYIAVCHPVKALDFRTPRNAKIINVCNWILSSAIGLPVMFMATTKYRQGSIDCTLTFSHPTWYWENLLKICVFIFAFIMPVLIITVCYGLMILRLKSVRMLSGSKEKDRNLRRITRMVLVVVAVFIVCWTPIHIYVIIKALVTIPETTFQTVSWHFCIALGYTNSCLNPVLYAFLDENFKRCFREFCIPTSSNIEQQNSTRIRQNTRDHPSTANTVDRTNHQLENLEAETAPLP
# How it was run: as §1
# [9] = target: T9, Human neuropeptide Y (NPY-Y1) (Homo sapiens, UniProt P25929); test: Radioligand binding, human neuropeptide Y NPY-Y1 membranes, FlashPlate, [125I]-PYY; conditions: compound at 10 μM, [125I]-PYY
# T9 construct: purchased Perkin Elmer Biosignal
# T9 sequence (P25929 1-384): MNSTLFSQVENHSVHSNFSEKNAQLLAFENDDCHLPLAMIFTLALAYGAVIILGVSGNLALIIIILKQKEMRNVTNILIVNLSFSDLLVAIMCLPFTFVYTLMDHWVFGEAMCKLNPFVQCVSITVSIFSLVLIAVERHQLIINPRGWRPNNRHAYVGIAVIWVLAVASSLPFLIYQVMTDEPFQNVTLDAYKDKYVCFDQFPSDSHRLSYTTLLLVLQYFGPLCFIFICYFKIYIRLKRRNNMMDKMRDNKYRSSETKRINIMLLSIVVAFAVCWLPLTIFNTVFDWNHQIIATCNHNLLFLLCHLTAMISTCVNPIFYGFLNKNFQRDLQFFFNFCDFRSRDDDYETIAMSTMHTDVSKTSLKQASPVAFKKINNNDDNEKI
# How it was run: as §1
# [10] = target: T10, Human δ-opioid (DOP) (Homo sapiens, UniProt P41143); test: Radioligand binding, human δ-opioid (DOP) membranes, FlashPlate, [3H]-Bremazocine; conditions: compound at 10 μM, [3H]-Bremazocine
# T10 construct: purchased Perkin Elmer Biosignal
# T10 sequence (P41143 whole entry): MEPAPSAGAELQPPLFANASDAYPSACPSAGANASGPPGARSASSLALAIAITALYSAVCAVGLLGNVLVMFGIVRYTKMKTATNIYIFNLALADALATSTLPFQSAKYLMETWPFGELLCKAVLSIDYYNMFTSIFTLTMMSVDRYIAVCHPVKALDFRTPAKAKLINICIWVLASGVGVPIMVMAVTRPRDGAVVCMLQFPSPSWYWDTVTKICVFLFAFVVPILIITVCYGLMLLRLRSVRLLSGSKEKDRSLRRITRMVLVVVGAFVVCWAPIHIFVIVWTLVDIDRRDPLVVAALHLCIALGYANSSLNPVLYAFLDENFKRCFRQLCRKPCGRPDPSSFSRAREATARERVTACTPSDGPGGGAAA
# How it was run: as §1
# [11] = target: T11, Human melanin-concentrating hormone (MCH1) (Homo sapiens, UniProt Q99705); test: Radioligand binding, human melanin-concentrating hormone MCH1 membranes, FlashPlate, [125I]-S36057; conditions: compound at 10 μM
# T11 construct: purchased Perkin Elmer Biosignal
# T11 sequence (Q99705 whole entry): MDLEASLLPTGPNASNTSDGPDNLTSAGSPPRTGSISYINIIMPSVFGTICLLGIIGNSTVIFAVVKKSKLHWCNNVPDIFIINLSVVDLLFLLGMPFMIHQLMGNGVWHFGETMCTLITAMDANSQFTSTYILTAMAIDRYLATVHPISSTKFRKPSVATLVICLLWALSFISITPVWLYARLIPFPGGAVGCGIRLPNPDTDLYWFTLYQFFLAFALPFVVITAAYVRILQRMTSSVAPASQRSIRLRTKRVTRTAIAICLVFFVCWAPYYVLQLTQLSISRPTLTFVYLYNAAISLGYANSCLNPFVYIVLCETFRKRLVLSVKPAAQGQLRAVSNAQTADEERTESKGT
# How it was run: as §1
# T1 sequence (P41968 whole entry): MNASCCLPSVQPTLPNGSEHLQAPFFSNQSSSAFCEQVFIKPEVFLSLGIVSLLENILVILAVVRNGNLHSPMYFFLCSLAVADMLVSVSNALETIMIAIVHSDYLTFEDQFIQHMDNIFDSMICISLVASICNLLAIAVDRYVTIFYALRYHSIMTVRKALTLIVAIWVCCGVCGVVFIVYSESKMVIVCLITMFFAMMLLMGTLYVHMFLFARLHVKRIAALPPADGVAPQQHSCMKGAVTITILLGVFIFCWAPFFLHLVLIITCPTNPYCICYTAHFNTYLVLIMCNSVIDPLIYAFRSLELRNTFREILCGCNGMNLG
smiles,measurement,setting,value
N=C(N)NCCC(=O)NC1C(OCc2ccc(Cl)cc2)OC(COCc2ccc3ccccc3c2)C(O)C1OCc1ccc2ccccc2c1 (stereo not drawn) [compound 429],A3: inhibition of radioligand binding,[1]; human MC3 membranes,+ (“+” indicates greater than 50% inhibition at 10 μM)
same,A8: inhibition of radioligand binding,[2]; human NK1 membranes,+ (“+” indicates greater than 50% inhibition at 10 μM)
same,A5: inhibition of radioligand binding,[3]; human MC5 membranes,+ (“+” indicates greater than 50% inhibition at 10 μM)
same,A10: inhibition of radioligand binding,[4]; human ORL1 membranes,− (“−” indicates less than 50% inhibition at 10 μM)
same,A2: inhibition of radioligand binding,[5]; human KOP membranes,− (“−” indicates less than 50% inhibition at 10 μM)
same,A4: inhibition of radioligand binding,[6]; human MC4 membranes,+ (“+” indicates greater than 50% inhibition at 10 μM)
same,A11: inhibition of radioligand binding,[7]; mouse mUR2 membranes,− (“−” indicates less than 50% inhibition at 10 μM)
same,A7: inhibition of radioligand binding,[8]; human MOP membranes,− (“−” indicates less than 50% inhibition at 10 μM)
same,A9: inhibition of radioligand binding,[9]; human NPY-Y1 membranes,− (“−” indicates less than 50% inhibition at 10 μM)
same,A1: inhibition of radioligand binding,[10]; human DOP membranes,− (“−” indicates less than 50% inhibition at 10 μM)
same,A6: inhibition of radioligand binding,"[11]; [125I]-S36057, human MCH1 membranes",+ (“+” indicates greater than 50% inhibition at 10 μM)
"N=C(N)NCC(=O)NC1C(OCc2ccc(Cl)cc2)OC(COCc2ccc3ccccc3c2)C(O)C1OCc1ccc(Cl)cc1 (single isomer, unassigned) [compound 508]","A3: inhibition of radioligand binding, human melanocortin (MC3)",[1]; 10 µM,+ (“+” indicates greater than 50% inhibition at 10 μM)
same,"A8: inhibition of radioligand binding, human neurokinin (NK1)",[2],+ (“+” indicates greater than 50% inhibition at 10 μM)
same,"A5: inhibition of radioligand binding, human melanocortin (MC5)",[3],+ (“+” indicates greater than 50% inhibition at 10 μM)
same,"A10: inhibition of radioligand binding, human opioid (ORL1)",[4],+ (“+” indicates greater than 50% inhibition at 10 μM)
same,"A2: inhibition of radioligand binding, human κ-opioid (KOP)",[5]; 10 µM,+ (“+” indicates greater than 50% inhibition at 10 μM)
same,"A4: inhibition of radioligand binding, human melanocortin (MC4)",[6],+ (“+” indicates greater than 50% inhibition at 10 μM)
same,"A11: inhibition of radioligand binding, mouse urotensin (mUR2)",[7],− (“−” indicates less than 50% inhibition at 10 μM)
same,"A7: inhibition of radioligand binding, human μ-opioid (MOP)",[8],− (“−” indicates less than 50% inhibition at 10 μM)
same,"A9: inhibition of radioligand binding, human neuropeptide Y (NPY-Y1)",[9],− (“−” indicates less than 50% inhibition at 10 μM)
same,"A1: inhibition of radioligand binding, human δ-opioid (DOP)",[10],− (“−” indicates less than 50% inhibition at 10 μM)
same,"A6: inhibition of radioligand binding, human melanin-concentrating hormone (MCH1)",[11]; [125I]-S36057,+ (“+” indicates greater than 50% inhibition at 10 μM)
COC[C@H]1OC(OCc2ccc3ccccc3c2)[C@H](NC(=O)CCCNC(=N)N)[C@@H](OCc2cccc(O)c2)[C@@H]1O (stereo partly drawn) [compound 135],"A3 radioligand binding, percentage inhibition",[1],− (“−” indicates less than 50% inhibition at 10 μM)
same,"A8 radioligand binding, percentage inhibition",[2],− (“−” indicates less than 50% inhibition at 10 μM)
same,"A5 radioligand binding, percentage inhibition",[3],− (“−” indicates less than 50% inhibition at 10 μM)
same,"A10 radioligand binding, percentage inhibition",[4],− (“−” indicates less than 50% inhibition at 10 μM)
same,"A2 radioligand binding, percentage inhibition",[5],− (“−” indicates less than 50% inhibition at 10 μM)
same,"A4 radioligand binding, percentage inhibition",[6],− (“−” indicates less than 50% inhibition at 10 μM)
same,"A11 radioligand binding, percentage inhibition",[7],− (“−” indicates less than 50% inhibition at 10 μM)
same,"A7 radioligand binding, percentage inhibition",[8],+ (“+” indicates greater than 50% inhibition at 10 μM)
same,"A9 radioligand binding, percentage inhibition",[9],− (“−” indicates less than 50% inhibition at 10 μM)
same,"A1 radioligand binding, percentage inhibition",[10],− (“−” indicates less than 50% inhibition at 10 μM)
same,"A6 radioligand binding, percentage inhibition",[11]; [125I]-S36057,− (“−” indicates less than 50% inhibition at 10 μM)
